Data as given in patent US9820990B2, “Methods of treating disorders associated with protein aggregation” (University of Pittsburgh—Of the Commonwealth System of …, priority 2009, dated 2017).
Entries after “also recorded” stand apart in the source; their conditions may differ. Structures can show the parent of a compound that is named as a salt. Where two headings read alike, the source gives them in different places.

How the values were obtained:
mCherry::LGG-1 = assay: Induction of autophagy in transgenic animals expressing Pnhx-2mCherry::lgg-1; format: in vivo, C. elegans; conditions: compared with well-fed animals treated with DMSO (diffuse)
Source text: FIG. 18A-E. Induction of autophagy by hit compounds. Images of transgenic animals expressing Pnhx-2mCherry:lgg-1 treated with various compounds are shown. Images were acquired using a Nikon instruments TiEclipse widefield light microscope fitted with a 20× Plan Apochromat objective. Images were then deconvolved using Volocity (Perkin Elmer, v 5.3.2). Deconvolved z planes were then merged to a single plane. Well-fed animals treated with DMSO (A) show a diffuse mCherry expression throughout the intestine. […] Starved (E) animals are included as a positive control for autophagy. Scale bar, 50 μm.
Macroautophagy is a cellular process in which a double membrane envelops cytosolic components or organelles (autophagosome) and delivers this material to a lysosome (autophagolysosome) for degradation and recycling (reviewed in 79). LGG-1/LC3/Atg8 is a diffuse cytosolic protein that participates in autophagosome formation and becomes inserted into the autophagosome membrane (80). Upon autophagosome formation, LGG-1 fused to mCherry changes its cytoplasmic distribution pattern from diffuse (lower fluorescence intensity) to punctate (higher fluorescence intensity) (80). To determine whether the imaging system could follow this process, a strain expressing a Pnhx-2mCherry::lgg-1 transgene was examined after starvation, a potent inducer of intestinal autophagosome formation (81). In well-fed animals, the diffuse cytoplasmic fluorescence in the intestinal cells was well above that of the N2 background (FIGS. 13K-13L, 13O-13Q). To detect mCherry::LGG-1 puncta, the diffuse fluorescence intensity of the well-fed animals was used to calibrate a threshold from which the SpotDetector BioApplication could detect any high-intensity spots. Although basal autophagy in the well-fed animals yielded a few spots (FIG. 13O), the large number of distinct puncta in the starved animals (FIGS. 13M, 13N, 13O-Q) indicated a marked increase in autophagy that was detected best by a statistically significant increase in spot count or total spot intensity per animal (FIGS. 13O and 13Q, respectively). […]

sGFP::ATZ [1] = assay: LOPAC library high-content primary screen for sGFP::ATZ accumulation in transgenic animals; format: in vivo, C. elegans; conditions: for Rank-score: 24 h
sGFP::ATZ [2] = assay: Hit compound characterization: dose-response in the sGFP::ATZ HCS assay; format: in vivo, C. elegans; parameters: key to dose-dependent response: c: Compound demonstrated a dose-dependent response.; Compound failed to demonstrate a dose-dependent response; conditions: for degradation of aggregated ATZ protein: Caenorhabditis elegans model system; for effect on sGFP::ATZ accumulation: dose-response, 0-100 μM; for dose-dependent response: retest at 0-100 μM, 24 or 48 hours; for GFP+ inclusions in ATZ worms: at 10 μM
Protocol: Imaging of animals using the ArrayScan VTI: Prior to imaging, worms were anesthetized by adding 30 μl of 0.02 M NaN3 in PBS to each well. Plates were resealed, inverted twice, and incubated for 5 minutes at room temperature. Images were acquired with the ArrayScan VTI HCS Reader fitted with a 2.5× objective and a 0.63× coupler using a 2-channel (TRITC and GFP) assay. Real-time analysis was performed using the SpotDetector BioApplication optimized to quantify fluorescent protein expression in C. elegans. Image acquisition and analysis of a 384-well plate was completed in <45 minutes. The total number of animals in the well was determined by counting the number of red heads (Pmyo-2mRFP) in the TRITC channel. Total spot area or total spot intensity was determined by quantifying the GFP-positive spots in the GFP channel. Total spot area or total spot intensity per animal was determined by dividing the values from the GFP channel by that from the TRITC channel.
Hit compound characterization: Compounds that were identified as potential hits were purchased (if available) and retested for verification. […] Compounds that produced a response in a dose-dependent manner were further tested for a time-dependent response. Compound dose-response curves were performed by dispensing 15 μl of a 4× stock solution into 384-well plates containing 15 μl of assay medium (see above). Thirty-five animals were sorted into each well bringing the volume to ˜60 μl. The final compound concentrations in each well varied from 0-100 μM. Assay plates were incubated in a 22° C. incubator for 24 or 48 hours. Each compound was tested in quadruplicate in at least 2 independent experiments.
Statistical evaluation: Statistical evaluation of data was performed using Prism® (Graphpad Software). The significance of actual and predicted data in FIGS. 12, 14 and 15 was determined using a linear regression analysis and comparing the slope and goodness-of-fit (r2) values. Statistical significance of the spot count, spot area and spot intensity values between N2 (wild-type) and various transgenic lines in FIG. 13 and dose-response in FIG. 17 was determined using an unpaired, one-tailed, Student's t-test.
Compound screen: To test the HCS protocol, a pilot drug screen was performed using the library of pharmacologically active compounds (LOPAC1280™ 1280 compounds). Tight gating parameters for total fluorescence were used to sort 35 young adult Pnhx2sGFP::ATZ animals into wells of 384-well plates containing […] of a LOPAC compound and 0.5% DMSO. Pnhx2sGFP::ATZ animals incubated with 0.5% DMSO served as untreated controls and were placed in the first-two and last-two columns of each plate. In a representative experiment, plate 1 of the LOPAC library was set-up for screening on day 1, and 3 other plates were set-up on the next day. After 24 incubation at 25° C., animals were immobilized by the addition of NaAz and placed in the ArrayScan VTI for automated imaging. To examine for systematic errors, the raw data (total spot area/animal) were depicted as a plate-well scatter plot (FIG. 17A). […] This difference reflects a wider sort-window used to collect animals on day 1 in comparison to that used on day 2. As the average values of the negative controls and that of the sample wells were similar, we combined the control and samples wells for normalization and to identify potential hits using the z-score (FIG. 17B). The ArrayScan VTI reads microtiter plates by rows, alternating from left-to-right, and then right-to-left. For some assays, we noted that the control fluorescence values would drift upwards slightly in rows towards the bottom of the plate. This drift appeared to correlate with an increase in chamber temperature during the scanning period and was minimized by cooling the chamber with a fan or shortening the read times by using 2.5× objective with a 0.6 coupler. Nonetheless, intra-plate variation was controlled for by presenting the data as a B-score (FIG. 17C). […]

ATZ = conditions: mouse model of AT deficiency; cited from earlier work
ATZ in HTO/Z cells = assay: HTO/Z cells, Western blot analysis for AT; format: cell-based, human; conditions: for ATZ levels in the cell line: HTO/Z mammalian cell line model of AT deficiency
Protocol: The cells were incubated for 48 hrs with fluphenazine in several different concentrations and then subjected to Western blot analysis for AT. […] The effect is evident at doses of 1-10 μM. […] This is different from CBZ which appears to affect autophagic as well as proteasomal degradation.

C. elegans = conditions: 0-100 mM, 4 hours, SYTOX Green uptake
Protocol: Animals were washed 5 times with M9 media and stained with 2 μM SYTOX™ Green (Invitrogen) for 5 minutes at room temperature (84). Approximately 50 animals/well were dispensed into an optical bottom black walled 96 well plate (Nunc Thermo Fisher Scientific, Rochester, N.Y., USA). Wells were imaged using the ArrayScan VTI over the entire area of the well in brightfield, red (TRITC) and green (GFP) channels at 50× magnification. The total number of animals and the number of dead bodies were determined by counting red and green spots, respectively. Data from SpotDetector algorithm were confirmed by manual counting of the live and dead animals. Percent dead=(the number of green objects detected/total number of animals)×100.
To determine whether the system could discriminate dead from live intestinal cells, we scanned and analyzed young adult animals exposed to different concentrations of NaAz in the presence SYTOX® Green.

[3] = among compounds that decreased ATZ accumulation, based on relative rank-scores
[4] = average of compound rankings by ascending B-score from two independent screens, 50 μM, <110 decreased, >1225 increased sGFP::ATZ inclusions
[5] = among compounds that increased ATZ accumulation, based on relative rank-scores

Molecule | mCherry::LGG-1 distribution pattern (autophagic activity) (mCherry::LGG-1) | Overall rank-order (sGFP::ATZ [1]; [3]) | Rank-score (sGFP::ATZ [1]; [4]) | degradation of aggregated ATZ protein (sGFP::ATZ [2]) | effect on sGFP::ATZ accumulation (sGFP::ATZ [2]) | dose-dependent response (sGFP::ATZ [2]) | also measured
CC12C(=O)OC(=O)C1(C)C1CCC2O1 (stereo not shown) [cantharidin, 2,6-Dimethyl-4,10-dioxatricyclo-[5.2.1.02,6]decane-3,5-dione] | markedly punctate distribution pattern indicative of increased autophagic activity | 2 | 2.5 | able to promote degradation of aggregated ATZ protein | dose-dependant decrease in sGFP::ATZ accumulation; also recorded: decreased | cantharidin^c | concentration at which an anti-protein aggregate effect was achieved (sGFP::ATZ [2]; C. elegans assay): 100 µM; effect on sGFP::ATZ accumulation (sGFP::ATZ [2]; listed as Cantharidin): dose-dependent decrease in sGFP::ATZ accumulation
NC(=O)N1c2ccccc2C=Cc2ccccc21 [carbamazepine] | – | – | – | – | – | – | amount of ATZ accumulated in the liver (ATZ): decrease
OCCN1CCN(CCCN2c3ccccc3Sc3ccc(C(F)(F)F)cc32)CC1 [fluphenazine dihydrochloride, 4-[3-[2-(Trifluoromethyl)phenothiazin-10-yl]propyl]-1-piperazineethanol] | markedly punctate distribution pattern indicative of increased autophagic activity | – | – | able to promote degradation of aggregated ATZ protein | dose-dependent decrease in sGFP::ATZ accumulation; also recorded: dose-dependant decrease in sGFP::ATZ accumulation; also recorded: dose-dependent effect; also recorded: decreased | fluphenazine dihydrochloride^c | Overall rank-order (sGFP::ATZ [1]): 23; Rank-score (sGFP::ATZ [1]; 50 µM): 81.0; GFP+ inclusions in ATZ worms (sGFP::ATZ [2]): almost complete elimination of the inclusions; doses at which the decrease in insoluble ATZ is evident (ATZ in HTO/Z cells; HTO/Z cells, 48 hrs): 1 to 10 µM; levels of the control GAPDH (ATZ in HTO/Z cells; HTO/Z cells, 48 hrs): no significant change; soluble ATZ (ATZ in HTO/Z cells; HTO/Z cells, 48 hrs): increase; insoluble ATZ levels (ATZ in HTO/Z cells; HTO/Z cells, 48 hrs, several concentrations): dose-dependent decrease; ATZ levels in the cell line (ATZ in HTO/Z cells): effective in reducing ATZ levels; ATZ levels in the cell line (ATZ in HTO/Z cells; listed as fluphenzine hydrochloride): decreased ATZ
O=c1[nH]c2ccccc2n1C1CCN(CCCC(c2ccc(F)cc2)c2ccc(F)cc2)CC1 [pimozide, 1-[1-[4,4-bis(4-fluorophenyl)butyl]-4-piperidyl]-1,3-dihydrobenzoimidazol-2-one] | markedly punctate distribution pattern indicative of increased autophagic activity | 33 | 107.5 | able to promote degradation of aggregated ATZ protein | dose-dependent decrease in sGFP::ATZ accumulation; also recorded: dose-dependant decrease in sGFP::ATZ accumulation; also recorded: dose-dependent effect; also recorded: decreased | pimozide^c | GFP+ inclusions in ATZ worms (sGFP::ATZ [2]): almost complete elimination of the inclusions; ATZ levels in the cell line (ATZ in HTO/Z cells): effective in reducing ATZ levels; also recorded: decreased ATZ
[N-]=[N+]=[N-] [sodium azide] | – | – | – | – | – | – | number of dead animals (C. elegans): dose dependent increase
CC(=O)O[C@H]1C(=O)[C@@]2(C)[C@H]([C@H](OC(=O)c3ccccc3)[C@]3(O)C[C@H](OC(=O)[C@H](O)[C@@H](NC(=O)c4ccccc4)c4ccccc4)C(C)=C1C3(C)C)[C@]1(OC(C)=O)CO[C@@H]1C[C@@H]2O [taxol, 5β,20-Epoxy-1,2α,4,7β, 10β,13α-hexahydroxytax-11-en-9-one 4,10-diacetate 2-benzoate 13-ester with (2R,3S)—N-benzoyl-3-phenylisoserine] | – | – | – | able to promote degradation of aggregated ATZ protein | – | taxol^c | Overall rank-order (sGFP::ATZ [1]): 19; Rank-score (sGFP::ATZ [1]; 50 µM): 73.5
C/C=C(/C)C(=O)O[C@H]1C(C)=C2[C@H]([C@@H]1OC(=O)CCCCCCC)[C@@](C)(OC(C)=O)C[C@H](OC(=O)CCC)[C@@]1(O)[C@H]2OC(=O)[C@@]1(C)O [thapsigargin] | – | – | 1256.0 | – | – | thapsigargin^c | Overall rank-order (sGFP::ATZ [1]; [5]): 2
CC(C)(C)c1cc(/C=C(\C#N)C(N)=S)cc(C(C)(C)C)c1O [tyrphostin AG 879] | – | – | 1236.5 | – | increased | tyrphostin AG 879^c | Overall rank-order (sGFP::ATZ [1]; [5]): 10; effect on sGFP::ATZ accumulation (sGFP::ATZ [2]; listed as tyrphostatin): increase in sGFP::ATZ accumulation
L(−)-norepinephrine bitartrate | – | 7 | 36.5 | – | – | L(−)-norepinephrine bitartrate^d | –
ivermectin | – | 1 | 2.0 | – | – | ivermectin^d | –
